Experimental data as given in US9566254B2, “Inhibitors and methods of inhibiting bacterial and viral pathogens” (priority 2010, dated 2017).
Structures can show the parent of a compound that is named as a salt.

Tests used:
Test in all cases: microbe, parasite or virus in culture
Format in all cases: cell-based
vaccinia virus = conditions: Orthopoxvirus vaccinia, read-out: Avg Activity (VV)
La Crosse virus (LACV) = conditions: La Crosse virus, Vero, read-out: Avg Activity (LACV)
Chlamydophila caviae = conditions: Chlamydia caviae, Vero, read-out: Avg Activity (C. Caviae)

Row | Structure (SMILES) | EC50 (vaccinia virus) [µM] | EC50 (La Crosse virus (LACV)) [µM] | EC50 (Chlamydophila caviae) [µM]
1 | CC(C)(C)c1ccc(C(=O)NC(=S)Nc2ccc(NC(=O)c3ccccc3Cl)c(O)c2)cc1 [Compound 2, N-[4-[(4-tert-butylbenzoyl)-carbamothioylamino]-2-hydroxy-phenyl]-2-chloro-benzamide] | < 1 | < 1 | < 1
2 | COc1cc(NC(=S)NC(=O)c2ccc(C(C)(C)C)cc2)ccc1N(C)c1ccccc1Cl [Compound 3, 4-tert-butyl-N-[[4-[(2-chlorophenyl)-methylamino]-3-methoxy-phenyl]-carbamothioyl]-benzamide] | < 1 | < 1 | < 1
3 | CC(C)(C)c1ccc(C(=O)NC(=S)Nc2ccc(N)cc2Cl)cc1 [Compound 4, N-[(4-amino-2-chloro-phenyl)carbamothioyl]-4-tert-butyl-benzamide hydrochloride] | < 1 | < 1 | < 1
4 | CNc1ccc(NC(=S)NC(=O)c2ccc(C(C)(C)C)cc2)c(Cl)c1 [Compound 5, 4-tert-butyl-N-[[2-chloro-4-(methylamino)phenyl]-carbamothioyl]benzamide hydrochloride] | < 1 | < 1 | < 1
5 | CC(C)(C)c1ccc(C(=O)NC(=S)Nc2ccc(NC(=O)c3ccccc3)cc2Cl)cc1 [Compound 7, N-[(4-benzamido-2-chloro-phenyl)carbamothioyl]-4-tert-butyl-benzamide] | < 1 | < 1 | < 1
6 | COc1cc(NC(=S)NC(=O)c2ccc(C(C)(C)C)cc2)ccc1NC(=S)c1ccccc1Cl [Compound 8, 4-tert-butyl-N-[[4-[(2-chlorobenzene-carbothioyl)amino]-3-methoxy-phenyl]-carbamothioyl]benzamide] | < 1 | < 1 | < 1
7 | CCS/C(=N\C(=O)c1ccc(C(C)(C)C)cc1)Nc1cc(C)ccc1Cl [Compound 9, (NZ)-4-tert-butyl-N-[(2-chloro-5-methyl-anilino)-ethylsulfanyl-methylene]benzamide] | < 1 | < 1 | < 1
8 | CCS/C(=N\C(=O)c1ccc(C(C)(C)C)cc1)Nc1ccc(NC(=O)c2ccccc2Cl)c(OC)c1 [Compound 10, N-[4-[[(Z)—N-(4-tert-butylbenzoyl)-C-ethylsulfanyl-carbonimidoyl]amino]-2-methoxy-phenyl]-2-chloro-benzamide] | < 1 | < 1 | 1 to 10
9 | COc1cc(NC(=S)NC(=O)c2ccc(C(C)(C)C)cc2)ccc1NC(=O)c1ccc(CN)cc1 [Compound 12, hydrochloride] | < 1 | > 25 | < 1
10 | Cc1cccc(Cl)c1NC(=S)NC(=O)c1ccc(C(C)(C)C)cc1 [Compound 13, 4-tert-butyl-N-[(2-chloro-6-methyl-phenyl)-carbamothioyl]benzamide] | 1 to 10 | < 1 | < 1
11 | CCS/C(=N\C(=O)c1ccc(C(C)(C)C)cc1)Nc1ccccc1Cl [Compound 14, (NZ)-4-tert-butyl-N-[(2-chloroanilino)-ethylsulfanyl-methylene]benzamide] | 1 to 10 | < 1 | < 1
12 | CC(C)(C)c1ccc(C(=O)NC(=S)Nc2cccc(C(F)(F)F)c2Cl)cc1 [Compound 15, 4-tert-butyl-N-[[2-chloro-3-(trifluoromethyl)phenyl]-carbamothioyl]benzamide] | 1 to 10 | < 1 | < 1
13 | COc1cc(NC(=S)NC(=O)c2ccc(C(C)(C)C)cc2)ccc1NS(=O)(=O)c1cccc2c(N(C)C)cccc12 [Compound 16, 4-tert-butyl-N-[[4-[[5-(dimethylamino)-1-naphthyl]sulfonylamino]-3-methoxy-phenyl]-carbamothioyl]benzamide] | 1 to 10 | 1 to 10 | < 1
14 | Cc1cccc(NC(=S)NC(=O)c2ccc(C(C)(C)C)cc2)c1Cl [Compound 19, 4-tert-butyl-N-[(2-chloro-3-methyl-phenyl)-carbamothioyl]benzamide] | 1 to 10 | 1 to 10 | < 1
15 | CN(C)c1ccc(NC(=S)NC(=O)c2ccc(C(C)(C)C)cc2)c(Cl)c1 [Compound 22, 4-tert-butyl-N-[[2-chloro-4-(dimethylamino)phenyl]-carbamothioyl]benzamide hydrochloride] | 1 to 10 | 1 to 10 | < 1
16 | COc1cc(NC(=S)NC(=N)c2ccc(C(C)(C)C)cc2)ccc1NC(=O)c1ccccc1Cl [Compound 23, N-[4-[(4-tert-butylbenzene-carboximidoyl)-carbamothioylamino]-2-methoxy-phenyl]-2-chloro-benzamide] | 1 to 10 | 1 to 10 | < 1
17 | COc1cc(NC(=S)NC(=O)c2ccc(C(C)(C)C)cc2)ccc1NC(=N)c1ccccc1Cl [Compound 24, 4-tert-butyl-N-[[4-[(2-chlorobenzene-carboximidoyl)amino]-3-methoxy-phenyl]-carbamothioyl]benzamide] | 1 to 10 | 1 to 10 | < 1

Row | Structure (SMILES) | EC50 (vaccinia virus) [µM] | EC50 (La Crosse virus (LACV)) [µM] | EC50 (Chlamydophila caviae) [µM]
18 | COc1cc(NC(=S)NC(=O)c2ccc(C(C)(C)C)cc2)ccc1NC(=O)CCCCC1SCC2NC(=O)NC21 (centres unmarked) [Compound 25, 4-tert-butyl-N-[[3-methoxy-4-[5-(2-oxo-1,3,3a,4,6,6a-hexahydrothieno[3,4-d]imidazol-4-yl)-pentanoylamino]phenyl]-carbamothioyl]benzamide] | 1 to 10 | > 25 | 1 to 10
19 | COc1cc(NC(=S)NC(=O)C2CCCCC2)ccc1NC(=O)c1ccccc1Cl [Compound 26, 2-chloro-N-[4-(cyclohexanecarbonyl-carbamothioylamino)-2-methoxy-phenyl]benzamide] | 1 to 10 | > 25 | 10 to 25
20 | COc1cc(NC(=S)NC(=O)c2ccc(C(C)(C)C)cc2)ccc1NC(=O)c1cccc(CN)c1 [Compound 27, 3-(aminomethyl)-N-[4-[(4-tert-butylbenzoyl)-carbamothioylamino]-2-methoxy-phenyl]benzamide hydrochloride] | 1 to 10 | > 25 | < 1
21 | COc1cc(NC(=S)NC(=O)c2ccc(C(C)(C)C)cc2)ccc1NC(=O)c1ccccc1N [Compound 28, 2-amino-N-[4-[(4-tert-butylbenzoyl)-carbamothioylamino]-2-methoxy-phenyl]benzamide] | 1 to 10 | > 25 | < 1
22 | CC(C)(C)c1ccc(C(=O)NC(=S)Nc2cc(OC(F)(F)F)ccc2Cl)cc1 [Compound 29, 4-tert-butyl-N-[[2-chloro-5-(trifluoromethoxy)phenyl]-carbamothioyl]benzamide] | 1 to 10 | > 25 | 
23 | COc1cc(NC(=S)NC(=O)c2ccc(C(C)(C)C)cc2)ccc1NC(=O)c1cccnc1 [Compound 30, N-[4-[(4-tert-butylbenzoyl)-carbamothioylamino]-2-methoxy-phenyl]pyridine-3-carboxamide] | 1 to 10 |  | < 1
24 | COc1cc(NC(=S)NC(=O)c2ccc(C(C)(C)C)cc2)ccc1NC(=O)c1ccncc1 [Compound 31, N-[4-[(4-tert-butylbenzoyl)-carbamothioylamino]-2-methoxy-phenyl]pyridine-4-carboxamide] | 1 to 10 |  | < 1
25 | COc1cc(NC(=S)NC(=O)c2ccc(C(C)(C)C)cc2)ccc1NC(=O)c1ccc(N)cc1 [Compound 32, N-[[4-[(4-aminobenzoyl)amino]-3-methoxy-phenyl]-carbamothioyl]-4-tert-butyl-benzamide hydrochloride] | 10 to 25 | 10 to 25 | < 1
26 | CCNC(=S)Nc1ccc(NC(=O)c2ccccc2Cl)c(OC)c1 [Compound 33, 2-chloro-N-[4-(ethylcarbamo-thioylamino)-2-methoxy-phenyl]benzamide] | 10 to 25 | > 25 | > 25
27 | CCN(C(=S)NC(=O)c1ccc(C(C)(C)C)cc1)c1ccc(NC(=O)c2ccccc2Cl)c(OC)c1 [Compound 34, N-[4-[(4-tert-butylbenzoyl)-carbamothioyl-ethyl-amino]-2-methoxy-phenyl]-2-chloro-benzamide] | 10 to 25 | > 25 | 1 to 10
28 | COC(=O)CC(=O)Nc1ccc(NC(=S)NC(=O)c2ccc(C(C)(C)C)cc2)cc1OC [Compound 35, methyl 3-[4-[(4-tert-butylbenzoyl)carbamo-thioylamino]-2-methoxy-anilino]-3-oxo-propanoate] | 10 to 25 | > 25 | 1 to 10
29 | CC(C)(C)c1ccc(C(=O)NC(=S)Nc2ccc(Nc3cccnc3)cc2)cc1 [Compound 36, 4-tert-butyl-N-[[4-(3-pyridylamino)phenyl]-carbamothioyl]benzamide hydrochloride] | 10 to 25 | > 25 | < 1
30 | COc1cc(NC(=S)NC(=O)c2ccc(C(C)(C)C)cc2)ccc1NC(N)=O [Compound 37, 4-tert-butyl-N-[(3-methoxy-4-ureido-phenyl)carbamothioyl]-benzamide] | > 25 | 1 to 10 | 
31 | CC(C)(C)c1ccc(C(=O)NC(=S)Nc2ccc(Nc3ccncc3)cc2)cc1 [Compound 38, 4-tert-butyl-N-[[4-(4-pyridylamino)phenyl]-carbamothioyl]benzamide hydrochloride] | > 25 | 1 to 10 | > 25
32 | Cc1ccc(C(=O)NC(=S)Nc2ccc(NC(=O)c3ccc(C(C)(C)C)cc3)cc2)cc1 [Compound 41, N-[[4-[(4-tert-butylbenzoyl)amino]phenyl]carbamothioyl]-4-methyl-benzamide] | < 1 | < 1 | < 1
33 | Cc1ccccc1NC(=S)NC(=O)c1ccc(C(C)(C)C)cc1 [Compound 42, 4-tert-butyl-N-(o-tolylcarbamothioyl)-benzamide] | < 1 | < 1 | < 1
